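Tested at 5 concentrations; 48 h exposure; 96-well plates; endpoints linearly interpolated, else capped at highest concentration. The concentration for 50% growth inhibition is given as GI50.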 Calls of active or inactive are those of the source. No stated cut-off is given here; in the data, active = GI50 up to about 1.1 µM and inactive = higher.
What was measured:
Assay in all cases: DTP human tumour cell line panel, 48 h
SN12C = test system: SN12C
SF-539 = test system: SF-539
PC-3 = test system: PC-3
TK-10 = test system: TK-10
HOP-92 = test system: HOP-92
U-251 = test system: U-251
MDA-N = test system: MDA-N
MCF7 = test system: MCF7
CAKI-1 = test system: CAKI-1
SNB-75 = test system: SNB-75
OVCAR-8 = test system: OVCAR-8
LOX IMVI = test system: LOX IMVI
A549 = test system: A549
OVCAR-4 = test system: OVCAR-4
RPMI-8226 = test system: RPMI-8226
SK-OV-3 = test system: SK-OV-3
M14 = test system: M14
SK-MEL-2 = test system: SK-MEL-2

Measured: GI50

CCCCCCCCCc1c(Cl)nc(Cl)nc1Cl
inactive: SN12C 12.9 µM | SF-539 18.2 µM | PC-3 15.7 µM | TK-10 23 µM | HOP-92 15.3 µM | U-251 18.9 µM | MDA-N 14.7 µM | MCF7 18.4 µM | CAKI-1 4.78 µM | SNB-75 15 µM | OVCAR-8 16.1 µM | LOX IMVI 1.95 µM | A549 20.9 µM | OVCAR-4 15 µM | RPMI-8226 14.6 µM | SK-OV-3 20.4 µM | M14 3.48 µM

COc1c2cc(C(C)(C)C)cc1Cc1cccc(c1OCc1cccc([N+](=O)[O-])c1)Cc1cc(C(C)(C)C)cc(c1OC)Cc1cccc(c1OCc1cccc([N+](=O)[O-])c1)Cc1cc(C(C)(C)C)cc(c1OC)Cc1cccc(c1OCc1cccc([N+](=O)[O-])c1)C2
inactive: SN12C > 50 µM | SF-539 > 50 µM | PC-3 > 50 µM | HOP-92 > 50 µM | U-251 > 50 µM | MDA-N > 50 µM | MCF7 > 50 µM | CAKI-1 > 50 µM | SK-MEL-2 > 50 µM | SNB-75 23.3 µM | OVCAR-8 > 50 µM | A549 > 50 µM | RPMI-8226 > 50 µM | M14 > 50 µM

COC(=O)c1c(OC(C)=O)ccc2c1c1cc3ccccc3c(OC(C)=O)c1n2C
inactive: SN12C 40.6 µM | SF-539 17.5 µM | PC-3 30.1 µM | TK-10 28.6 µM | HOP-92 10.3 µM | U-251 61 µM | MDA-N 33.8 µM | MCF7 9.33 µM | CAKI-1 11.8 µM | SK-MEL-2 29.7 µM | SNB-75 4.67 µM | OVCAR-8 14.2 µM | A549 19.9 µM | OVCAR-4 19.7 µM | RPMI-8226 8.63 µM | SK-OV-3 6.65 µM | M14 29.4 µM

COc1cc2c(c(O)c1OC)C(=O)C1CCC(=O)N1C2c1cccc2ccccc12 (centres undefined)
inactive: SN12C 77.4 µM | SF-539 41.5 µM | PC-3 25.2 µM | HOP-92 19.3 µM | U-251 37.4 µM | MDA-N 40.8 µM | MCF7 32.5 µM | CAKI-1 85.1 µM | SK-MEL-2 50.7 µM | SNB-75 > 100 µM | OVCAR-8 49.1 µM | A549 28.8 µM | OVCAR-4 47.4 µM | RPMI-8226 20.7 µM | SK-OV-3 18.7 µM | M14 51.4 µM

c1ccc(C2OCC(OC3CCCCO3)CO2)cc1 (centres undefined)
inactive: SN12C > 100 µM | SF-539 > 100 µM | PC-3 > 100 µM | TK-10 > 100 µM | HOP-92 > 100 µM | U-251 > 100 µM | MDA-N > 100 µM | MCF7 > 100 µM | CAKI-1 > 100 µM | SK-MEL-2 > 100 µM | OVCAR-8 > 100 µM | LOX IMVI > 100 µM | A549 > 100 µM | OVCAR-4 > 100 µM | RPMI-8226 > 100 µM | SK-OV-3 > 100 µM | M14 > 100 µM

O=C(Nc1cc(Cl)c(I)c(Cl)c1)C(F)(F)F
inactive: SN12C 35.5 µM | SF-539 > 10 µM | PC-3 31.1 µM | HOP-92 20.3 µM | U-251 40.4 µM | MDA-N 35.8 µM | MCF7 38.4 µM | CAKI-1 19.9 µM | SNB-75 20.8 µM | OVCAR-8 20.1 µM | OVCAR-4 31.1 µM | RPMI-8226 31.1 µM | SK-OV-3 31 µM | M14 23.2 µM

CCOC(=O)CC/C(=N/Nc1ccc(Cl)cc1[N+](=O)[O-])C(=O)OCC
inactive: SN12C > 100 µM | SF-539 > 100 µM | PC-3 > 100 µM | TK-10 > 100 µM | HOP-92 11.4 µM | U-251 > 100 µM | MDA-N > 100 µM | MCF7 > 100 µM | SK-MEL-2 > 100 µM | SNB-75 61.8 µM | OVCAR-8 > 100 µM | LOX IMVI > 100 µM | A549 > 100 µM | OVCAR-4 > 100 µM | RPMI-8226 > 100 µM | SK-OV-3 > 100 µM | M14 > 100 µM

C[C@@H]1C(O)CC[C@H](C)C12CC=CC2=O (some centres undefined)
inactive: SN12C > 100 µM | SF-539 > 100 µM | PC-3 > 100 µM | TK-10 > 100 µM | HOP-92 > 100 µM | U-251 > 100 µM | MDA-N > 100 µM | MCF7 > 100 µM | CAKI-1 > 100 µM | SK-MEL-2 > 100 µM | LOX IMVI > 100 µM | A549 > 100 µM | OVCAR-4 > 100 µM | RPMI-8226 > 100 µM | SK-OV-3 > 100 µM

Cc1cn(C2CC(O)C(Cn3nncc3Cn3nc(Br)c(=O)[nH]c3=O)O2)c(=O)[nH]c1=O (centres undefined)
inactive: SN12C > 100 µM | SF-539 > 100 µM | PC-3 > 100 µM | TK-10 > 100 µM | HOP-92 > 100 µM | U-251 > 100 µM | MDA-N > 100 µM | MCF7 > 100 µM | CAKI-1 > 100 µM | SK-MEL-2 > 100 µM | OVCAR-8 > 100 µM | LOX IMVI > 100 µM | A549 > 100 µM | OVCAR-4 > 100 µM | RPMI-8226 > 100 µM | SK-OV-3 > 100 µM | M14 > 100 µM

COc1ccc(-n2c(SC(CN3CCOCC3)CN3CCCC3=O)nc3ccccc3c2=O)cc1 (centres undefined)
inactive: SN12C > 100 µM | SF-539 58.7 µM | PC-3 > 100 µM | TK-10 95.1 µM | HOP-92 > 100 µM | U-251 > 100 µM | MDA-N > 100 µM | MCF7 > 100 µM | CAKI-1 43.7 µM | SK-MEL-2 > 100 µM | SNB-75 70.8 µM | OVCAR-8 > 100 µM | A549 87.7 µM | OVCAR-4 98.6 µM | RPMI-8226 > 100 µM | SK-OV-3 > 100 µM | M14 > 100 µM

COC(=O)C(CCSC)NC(=O)CNC(=O)CSc1nnc(COc2ccc(Cl)cc2)n1-c1ccccc1 (centres undefined)
inactive: SN12C 18.4 µM | SF-539 18.7 µM | PC-3 16.6 µM | TK-10 17.6 µM | HOP-92 17.6 µM | U-251 17.3 µM | MDA-N 18.6 µM | MCF7 17.9 µM | SK-MEL-2 15.4 µM | SNB-75 19.1 µM | LOX IMVI 11.6 µM | A549 41.3 µM | OVCAR-4 19.3 µM | RPMI-8226 22.6 µM | SK-OV-3 18.1 µM | M14 19.5 µM

CCN(CC)Cc1ccccc1CC(=O)N1c2ccccc2C(=O)Nc2cccnc21
inactive: SN12C > 100 µM | SF-539 > 100 µM | PC-3 > 100 µM | TK-10 > 100 µM | HOP-92 > 100 µM | U-251 > 100 µM | MDA-N > 100 µM | MCF7 41.2 µM | CAKI-1 > 100 µM | SK-MEL-2 > 100 µM | OVCAR-8 > 100 µM | LOX IMVI > 100 µM | A549 > 100 µM | OVCAR-4 > 100 µM | RPMI-8226 > 100 µM | SK-OV-3 > 100 µM | M14 > 100 µM
